Assay [1] concerns the target T1, Alpha glucosidase (Homo sapiens, UniProt O43451+P10253+P14410+Q2M2H8). Nature of the assay: Non-competitive inhibition of alpha-glucosidase (unknown origin) using p-nitro phenyl glucopyranoside as substrate preincubated for 10 mins followed by substrate addition measured after 30 mins. The class given is protein assay.
Assay [2] concerns the target T1, Alpha glucosidase. Nature of the assay: Inhibition of alpha-glucosidase (unknown origin) using p-nitro phenyl glucopyranoside as substrate preincubated for 10 mins followed by substrate addition measured after 30 mins. The class given is protein assay.
The target in assay [3] is T1, Alpha glucosidase. Nature of the assay: Inhibition of alpha-glucosidase (unknown origin) using p-nitro phenyl glucopyranoside as substrate preincubated for 10 mins followed by substrate addition measured after 10 mins. The class given is protein assay.
In assay [4] the target is T2, Alpha amylase (Homo sapiens, UniProt P0DUB6).
T2 sequence (P0DUB6 whole entry): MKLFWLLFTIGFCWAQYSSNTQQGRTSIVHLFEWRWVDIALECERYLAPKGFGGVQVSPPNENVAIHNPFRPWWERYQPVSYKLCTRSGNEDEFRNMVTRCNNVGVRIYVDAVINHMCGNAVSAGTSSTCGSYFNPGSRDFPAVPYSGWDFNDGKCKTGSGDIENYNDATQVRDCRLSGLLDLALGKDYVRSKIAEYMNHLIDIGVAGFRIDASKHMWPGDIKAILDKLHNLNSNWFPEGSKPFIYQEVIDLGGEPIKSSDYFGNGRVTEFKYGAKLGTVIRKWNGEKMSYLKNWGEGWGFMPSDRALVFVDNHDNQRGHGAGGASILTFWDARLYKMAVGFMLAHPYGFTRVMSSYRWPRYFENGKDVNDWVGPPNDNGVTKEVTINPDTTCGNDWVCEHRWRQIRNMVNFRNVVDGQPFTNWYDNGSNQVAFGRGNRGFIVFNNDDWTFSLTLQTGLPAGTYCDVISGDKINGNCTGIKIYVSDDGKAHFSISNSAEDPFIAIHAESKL
The assay is described as follows: Inhibition of alpha-amylase (unknown origin) using p-nitro phenyl glucopyranoside as substrate preincubated for 10 mins followed by substrate addition measured after 10 mins.

The results in this text go back to ChEMBL document CHEMBL4304757, “Synthetic heterocyclic candidates as promising α-glucosidase inhibitors: An overview” (Eur J Med Chem, 2019).

As usually defined, the Ki is the equilibrium dissociation constant of an inhibitor or competing ligand from its target. The low end stands for higher affinity, the high end for lower affinity. As a reminder, the IC50 is the concentration needed to halve the response being measured. A lower IC50 goes with greater potency in that assay.

With `O=C(N/N=C/c1cc(Cl)cc(Cl)c1O)c1nc(-c2cc3ccccc3oc2=O)cs1`, the Ki in assay [1] came out at 6.8 µM. In addition, the IC50 in assay [2] is 6.2 µM.
For `CCOC(=O)CN1C(=O)S/C(=C/c2ccc(-n3ccc4c(Br)ccnc43)cc2)C1=O`, the results for the 50% inhibitory concentration (IC50) in assay [3] and in assay [4] were 0.55 µM and 0.85 µM, respectively.
